Molecular target: T1, PKB-PIF fusion protein (protein kinase B) (Homo sapiens, UniProt P31751)
T1 construct: PIF (fusion partner); made in house
Assay: Measurement of PKB kinase inhibitory activity (IC50)
Assay type: biochemical
Conditions: 0.6 nM enzyme, 30 μM ATP/γ33P-ATP, 25 μM AKTide-2T substrate; read-out: PKB IC50
Method: The reaction is allowed to proceed for 20 minutes before addition of excess orthophosphoric acid to quench activity. The reaction mixture is transferred to a phosphocellulose filter plate where the peptide binds and the unused ATP is washed away. After washing, scintillant is added and the incorporated activity measured by scintillation counting.

T1 sequence (P31751 with tags, fused parts or gaps limits assumed): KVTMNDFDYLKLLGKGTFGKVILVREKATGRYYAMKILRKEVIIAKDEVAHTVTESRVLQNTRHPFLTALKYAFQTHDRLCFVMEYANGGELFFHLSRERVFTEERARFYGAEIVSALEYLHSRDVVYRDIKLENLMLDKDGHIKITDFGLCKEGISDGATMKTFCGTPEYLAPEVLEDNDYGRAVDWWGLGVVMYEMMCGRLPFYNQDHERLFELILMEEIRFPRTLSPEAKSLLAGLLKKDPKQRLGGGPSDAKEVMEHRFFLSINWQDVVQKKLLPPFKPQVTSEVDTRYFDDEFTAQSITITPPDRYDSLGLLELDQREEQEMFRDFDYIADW

IC50 [nM] | Compound
< 1000 | Clc1ccc(C(c2ccc(-c3cn[nH]c3)cc2)N2CCNCC2)cc1 (centres unmarked) [Example 57, 1-{(4-Chloro-phenyl)-[4-(1H-pyrazol-4-yl)-phenyl]-methyl}-piperazine]
< 50000 | c1ccc(OC(CCn2ccnc2)c2ccc(-c3cn[nH]c3)cc2)cc1 (centres unmarked) [Example 62, 4-[4-(3-Imidazol-1-yl-1-phenoxy-propyl)-phenyl]-1H-pyrazole]
< 1000 | CNCC(c1ccc(Cl)cc1)c1ccc(-c2cn[nH]c2)cc1 (centres unmarked) [Example 21, {2-(4-Chloro-phenyl)-2-[4-(1H-pyrazol-4-yl)-phenyl]-ethyl}-methyl-amine]
< 1000 | CNCC(c1ccc(F)cc1)c1ccc(-c2cn[nH]c2)cc1 (centres unmarked) [Example 65, {2-(4-Fluoro-phenyl)-2-[4-(1H-pyrazol-4-yl)-phenyl]-ethyl}-methyl-amine]
< 1000 | CNCC(O)(c1ccc(-c2cn[nH]c2)cc1)c1ccc([N+](=O)[O-])cc1 (centres unmarked) [Example 91, 2-Methylamino-1-(4-nitro-phenyl)-1-[4-(1H-pyrazol-4-yl)-phenyl]-ethanol]
< 5000 | CN1CCCN(C(c2ccccc2)c2ccc(-c3cn[nH]c3)cc2)CC1 (centres unmarked) [Example 58, 1-Methyl-4-{phenyl-[4-(1H-pyrazol-4-yl)-phenyl]-methyl}-[1,4]diazepane]
< 1000 | Fc1cc(C2(c3ccc(-c4cn[nH]c4)cc3)CCNCC2)ccc1Cl [Example 87, 4-(4-Chloro-3-fluoro-phenyl)-4-[4-(1H-pyrazol-4-yl)-phenyl]-piperidine]
< 1000 | Clc1ccc(C(CCn2ccnc2)c2ccc(-c3cn[nH]c3)cc2)cc1 (centres unmarked) [Example 61, 4-{4-[1-(4-Chloro-phenyl)-3-imidazol-1-yl-propyl]-phenyl}-1H-pyrazole]
< 5000 | c1cc(C2(c3ccc(-c4cn[nH]c4)cc3)CCNCC2)ccn1 [Example 89, 4-[4-(1H-Pyrazol-4-yl)-phenyl]-1,2,3,4,5,6-hexahydro-[4,4′]bipyridinyl]
< 1000 | Clc1ccc(C(CN2CCCC2)c2ccc(-c3cn[nH]c3)cc2)cc1 (centres unmarked) [Example 25, 4-{4-[1-(4-Chloro-phenyl)-2-pyrrolidin-1-yl-ethyl]-phenyl}-1H-pyrazole]
< 1000 | CN(C)CC(c1ccc(Cl)cc1)c1ccc(-c2cn[nH]c2)cc1 (centres unmarked) [Example 20, {2-(4-Chloro-phenyl)-2-[4-(1H-pyrazol-4-yl)-phenyl]-ethyl}-dimethyl-amine]
< 1000 | NCCC(c1ccc(Oc2ccccc2)cc1)c1ccc(-c2cn[nH]c2)cc1 (centres unmarked) [Example 56, 3-(4-Phenoxy-phenyl)-3-[4-(1H-pyrazol-4-yl)-phenyl]-propylamine]
< 1000 | Clc1ccc(C(CN2CCC2)c2ccc(-c3cn[nH]c3)cc2)cc1 (centres unmarked) [Example 35, 4-{4-[2-Azetidin-1-yl-1-(4-chloro-phenyl)-ethyl]-phenyl}-1H-pyrazole]
< 5000 | CN(C)CCC(c1ccc(-c2cn[nH]c2)cc1)c1ccccn1 (centres unmarked) [Example 19, Dimethyl-{3-[4-(1H-pyrazol-4-yl)-phenyl]-3-pyridin-2-yl-propyl}-amine]
< 50000 | CNC(=O)C(c1ccc(Cl)cc1)c1ccc(-c2cn[nH]c2)cc1 (centres unmarked) [Example 40, 2-(4-Chloro-phenyl)-N-methyl-2-[4-(1H-pyrazol-4-yl)-phenyl]-acetamide]
< 50000 | CNC(=O)C(c1ccc(-c2cn[nH]c2)cc1)c1ccc(-c2cn[nH]c2)cc1 [Example 41, N-Methyl-2,2-bis-[4-(1H-pyrazol-4-yl)-phenyl]-acetamide]
< 1000 | NCCC(c1ccc(-c2cn[nH]c2)nc1)c1ccc(Cl)c(Cl)c1 (centres unmarked) [Example 94, 3-(3,4-Dichloro-phenyl)-3-[6-(1H-pyrazol-4-yl)-pyridin-3-yl]-propylamine]
< 1000 | Clc1ccc(C2(c3ccc(-c4cn[nH]c4)cc3)CCNCC2)cc1 [Example 14, 4-(4-Chloro-phenyl)-4-[4-(1H-pyrazol-4-yl)-phenyl]-piperidine]
< 1000 | OCCCNCC(c1ccc(Cl)cc1)c1ccc(-c2cn[nH]c2)cc1 (centres unmarked) [Example 72]
< 5000 | Cc1n[nH]c(C)c1-c1ccc(C(CN)c2ccccc2)cc1 (centres unmarked) [Example 3, 2-[4-(3,5-Dimethyl-1H-pyrazol-4-yl)-phenyl]-2-phenyl-ethylamine]
< 1000 | CC(C)NCC(c1ccc(Cl)cc1)c1ccc(-c2cn[nH]c2)cc1 (centres unmarked) [Example 26, {2-(4-Chloro-phenyl)-2-[4-(1H-pyrazol-4-yl)-phenyl]-ethyl}-isopropyl-amine]
< 1000 | NC(=O)CC(c1ccc(-c2cn[nH]c2)cc1)c1ccc(Cl)c(Cl)c1 (centres unmarked) [Example 69, 3-(3,4-Dichloro-phenyl)-3-[4-(1H-pyrazol-4-yl)-phenyl]-propionamide]
< 1000 | NC(c1ccc(Cl)cc1)c1ccc(-c2cn[nH]c2)cc1 (centres unmarked) [Example 104, C-(4-Chloro-phenyl)-C-[4-(1H-pyrazol-4-yl)-phenyl]-methylamine]

IC50 [nM] | Compound
< 1000 | CN(C)CC(c1ccccc1)c1ccc(-c2cn[nH]c2)cc1 (centres unmarked) [Example 27, Dimethyl-{2-phenyl-2-[4-(1H-pyrazol-4-yl)-phenyl]-ethyl}-amine]
< 5000 | N#CC(Cc1ccccc1)c1cccc(-c2cn[nH]c2)c1 (centres unmarked) [Example 2, 3-Phenyl-2-[3-(1H-pyrazol-4-yl)-phenyl]-propionitrile]
< 1000 | CNCC(Oc1ccc(Cl)cc1)c1ccc(-c2cn[nH]c2)cc1 (centres unmarked) [Example 71, {2-(4-Chloro-phenoxy)-2-[4-(1H-pyrazol-4-yl)-phenyl]-ethyl}-methyl-amine]
< 1000 | CNCC(c1ccc(-c2cn[nH]c2)cc1)c1ccc(-c2cn[nH]c2)cc1 [Example 29, {2,2-Bis-[4-(1H-pyrazol-4-yl)-phenyl]-ethyl}-methyl-amine]
< 5000 | CNCCC(c1ccc(-c2cn[nH]c2)cc1)c1ccc(N(C)C)cc1 (centres unmarked) [Example 53, Dimethyl-(4-{3-methylamino-1-[4-(1H-pyrazol-4-yl)-phenyl]-propyl}-phenyl)-amine]
< 1000 | CNCCC(c1ccc(-c2cn[nH]c2)cc1)c1cccc(Cl)c1 (centres unmarked) [Example 10, {3-(3-Chloro-phenyl)-3-[4-(1H-pyrazol-4-yl)-phenyl]-propyl}-methyl-amine]
< 50000 | CNCC(c1ccc(Oc2cc(C(N)=O)ccn2)cc1)c1ccc(-c2cn[nH]c2)cc1 (centres unmarked) [Example 70, 2-(4-{2-Methylamino-1-[4-(1H-pyrazol-4-yl)-phenyl]-ethyl}-phenoxy)-isonicotinamide]
< 1000 | Clc1ccc(C(CN2CCNCC2)c2ccc(-c3cn[nH]c3)cc2)cc1 (centres unmarked) [Example 33, 1-{2-(4-Chloro-phenyl)-2-[4-(1H-pyrazol-4-yl)-phenyl]-ethyl}-piperazine]
< 5000 | Clc1ccc(C(CN2CCOCC2)c2ccc(-c3cn[nH]c3)cc2)cc1 (centres unmarked) [Example 24, 4-{2-(4-Chloro-phenyl)-2-[4-(1H-pyrazol-4-yl)-phenyl]-ethyl}-morpholine]
< 1000 | Clc1ccc(C(CN2CCCCC2)c2ccc(-c3cn[nH]c3)cc2)cc1 (centres unmarked) [Example 34, 1-{2-(4-Chloro-phenyl)-2-[4-(1H-pyrazol-4-yl)-phenyl]-ethyl}-piperidine]
< 5000 | COCCCOc1ccc(C2(c3ccc(-c4cn[nH]c4)cc3)CCNCC2)cc1 [Example 68, 4-[4-(3-Methoxy-propoxy)-phenyl]-4-[4-(1H-pyrazol-4-yl)-phenyl]-piperidine]
< 1000 | NCCC(c1ccc(-c2cn[nH]c2)cc1)c1ccc(Cl)c(Cl)c1 (centres unmarked) [Example 13, 3-(3,4-Dichloro-phenyl)-3-[4-(1H-pyrazol-4-yl)-phenyl]-propylamine]
< 1000 | COc1ccc(C(CCN)c2ccc(-c3cn[nH]c3)cc2)cc1 (centres unmarked) [Example 77, 3-(4-Methoxy-phenyl)-3-[4-(1H-pyrazol-4-yl)-phenyl]-propylamine]
< 5000 | N#Cc1n[nH]cc1-c1ccc(C2(c3ccc(Cl)cc3)CCNCC2)cc1 [Example 55, 4-{4-[4-(4-Chloro-phenyl)-piperidin-4-yl]-phenyl}-1H-pyrazole-3-carbonitrile]
< 1000 | CN(C)CC(c1ccc(-c2cn[nH]c2)cc1)c1ccc(-c2cn[nH]c2)cc1 [Example 28, {2,2-Bis-[4-(1H-pyrazol-4-yl)-phenyl]-ethyl}-dimethyl-amine]
< 1000 | Clc1ccc(C(CCN2CCCC2)c2ccc(-c3cn[nH]c3)cc2)cc1 (centres unmarked) [Example 50, 4-{4-[1-(4-Chloro-phenyl)-3-pyrrolidin-1-yl-propyl]-phenyl}-1H-pyrazole]
< 1000 | CNCCC(c1ccc(-c2cn[nH]c2)cc1)c1ccc(F)c(F)c1 (centres unmarked) [Example 9, {3-(3,4-Difluoro-phenyl)-3-[4-(1H-pyrazol-4-yl)-phenyl]-propyl}-methyl-amine]
< 1000 | CNCCC(c1ccc(O)cc1)c1ccc(-c2cn[nH]c2)cc1 (centres unmarked) [Example 76, 4-{3-Methylamino-1-[4-(1H-pyrazol-4-yl)-phenyl]-propyl}-phenol]
< 1000 | c1ccc(C2(c3ccc(-c4cn[nH]c4)cc3)CCNCC2)cc1 [Example 17, 4-Phenyl-4-[4-(1H-pyrazol-4-yl)-phenyl]-piperidine]
< 5000 | CNCC(c1ccc(-c2cccnc2)cc1)c1ccc(-c2cn[nH]c2)cc1 (centres unmarked) [Example 75, Methyl-[2-[4-(1H-pyrazol-4-yl)-phenyl]-2-(4-pyridin-3-yl-phenyl)-ethyl]-amine]
< 1000 | CNCC(c1ccc(Cl)cc1)c1ccc(-c2cn[nH]c2)cc1 (stereo in doubt) [Example 22, {2-(4-Chloro-phenyl)-2-[4-(1H-pyrazol-4-yl)-phenyl]-ethyl}-methyl-amine (R)]
< 1000 | NCCC(c1ccc(Cl)cc1)c1ccc(-c2cn[nH]c2)cc1 (centres unmarked) [Example 12, 3-(4-Chloro-phenyl)-3-[4-(1H-pyrazol-4-yl)-phenyl]-propylamine]

Compound | IC50 [nM]
CN1CCC(c2ccc(Cl)cc2)(c2ccc(-c3cn[nH]c3)cc2)CC1 [Example 16, 4-(4-Chloro-phenyl)-1-methyl-4-[4-(1H-pyrazol-4-yl)-phenyl]-piperidine] | < 1000
NC(Cc1ccc(-c2cn[nH]c2)cc1)c1ccccc1 (centres unmarked) [Example 36, 1-Phenyl-2-[4-(1H-pyrazol-4-yl)-phenyl]-ethylamine] | < 5000

Reference: patent publication US8541461B2 (Astex Therapeutics Limited, priority 2005, dated 2013)
